From patent US8802704B2, “Oxadiazole derivatives” (Merck Serono SA, priority 2009, dated 2014)
Where two headings read alike, the source gives them in different places.

How the values were obtained:
S1P3 = S1P3 (Homo sapiens, UniProt Q99500); assay: Receptor binding assay, [33P]sphingosine 1-phosphate competition (SPA), S1P3
Procedure: Membranes were prepared from CHO cells expressing S1P1 or S1P3 for use in ligand and […] binding studies. Cells were suspended in 50 mM TRIS, pH 7.4, 2 mM EDTA, 250 mM Sucrose (buffer A) and 1× Complete protease inhibitor cocktail (Roche), and disrupted at 4° C. by N2 decompression using a cell disruption bomb (Parr Instrument). Following centrifugation at 1000 RPM for 10 min at 4° C., the supernatant was diluted (2×) in buffer A and centrifuged again at 19000 RPM for 75 min at 4° C. The pellet was then suspended in 10 mM HEPES, pH 7.4, 1 mM EDTA, 250 mM Sucrose (Buffer B), and 1× Complete EDTA-free protease inhibitor cocktail and homogenized using a potter. Membranes were flash frozen in liquid N2 and stored at −80° C.
[33P]sphingosine 1-phosphate (3000 Ci/mmol; American Radiolabeled Chemicals, Inc.) was added to test compounds in 20% DMSO by competition. Membranes and WGA SPA beads (GE Healthcare) were added to give a final volume of 100 μl in 96-well plates or 50 μl in 384-well plates with assay concentrations of 30 pM or 15 pM [33P]sphingosine 1-phosphate (respectively for S1P1 or S1P3), 50 mM HEPES, pH 7.5, 5 mM MgCl2, 100 mM NaCl, 0.4% fatty acid-free BSA, 1-5 μg/well of proteins in 96-well plates vs 0.6-1 μg/well of proteins in 384-well plates and 100 μg/well of WGA SPA beads in 96-well plates vs 75 μg/well of WGA SPA beads in 384-well plates. Binding was performed for 60 min at RT on a shaker and bound radioactivity was measured on a PerkinElmer 1450 MicroBeta counter. Triplicate samples were averaged and normalized as percentage of inhibition relative to total binding (only DMSO in well) and non-specific binding (1000-fold excess of unlabeled S1P). Binding data were analyzed using the GraphPad Prism program or Genedata software.

S1P1 [1] = target: T1, S1P1 (Homo sapiens, UniProt P21453); assay: Receptor binding assay, [33P]sphingosine 1-phosphate competition (SPA), S1P1
Procedure: Cells were suspended in 50 mM TRIS, pH 7.4, 2 mM EDTA, 250 mM Sucrose (buffer A) and 1× Complete protease inhibitor cocktail (Roche), and disrupted at 4° C. by N2 decompression using a cell disruption bomb (Parr Instrument). […] The pellet was then suspended in 10 mM HEPES, pH 7.4, 1 mM EDTA, 250 mM Sucrose (Buffer B), and 1× Complete EDTA-free protease inhibitor cocktail and homogenized using a potter. Membranes were flash frozen in liquid N2 and stored at −80° C.
[33P]sphingosine 1-phosphate (3000 Ci/mmol; American Radiolabeled Chemicals, Inc.) was added to test compounds in 20% DMSO by competition. […] Triplicate samples were averaged and normalized as percentage of inhibition relative to total binding (only DMSO in well) and non-specific binding (1000-fold excess of unlabeled S1P). Binding data were analyzed using the GraphPad Prism program or Genedata software.
Target sequence in this assay (P21453 whole entry, species assumed): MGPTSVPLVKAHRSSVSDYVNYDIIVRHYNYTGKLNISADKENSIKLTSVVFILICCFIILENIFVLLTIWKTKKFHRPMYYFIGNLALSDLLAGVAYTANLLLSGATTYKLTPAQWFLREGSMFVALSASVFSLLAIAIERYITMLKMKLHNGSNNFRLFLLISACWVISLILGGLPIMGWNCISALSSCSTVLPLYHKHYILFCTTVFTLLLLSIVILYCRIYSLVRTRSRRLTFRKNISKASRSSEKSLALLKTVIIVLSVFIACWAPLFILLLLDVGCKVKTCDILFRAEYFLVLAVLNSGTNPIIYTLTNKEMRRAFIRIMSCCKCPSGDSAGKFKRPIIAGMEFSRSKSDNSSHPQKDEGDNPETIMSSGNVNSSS

S1P1 [2] = target: T1, S1P1; assay: S1P1 internalization assay in S1P1-U2OS cells (cell imaging); format: cell-based; settings: U2OS cells expressing S1P1-EGFP, 1 hour
Procedure: Cellular functional assays: Internalization of Sphingosine-1-phosphate receptor 1 (S1P1) in a human Cell line (U2OS) in a 384-well format using a Cell Imaging analysis.
The S1P1 internalization assay was performed in 384 well plates (Corning® 384 black with clear bottom 3712) using S1P1-U2OS cells from Biolmage (C039A), a human epithelial cell line (Human Bone Osteosarcoma Epithelial Cells). These cells expressed the human S1P1 Receptor fused to the green fluorescent protein (EGFP). A standard CMV promoter (cytomegalovirus promoter) controls the expression of S1P1-EGFP and continuous expression was maintained by addition of geneticin to the culture medium.
S1P1Receptor desensitization induced the internalization of the membrane-localized S1P1-EGFP fusion protein to endosomes, which can be monitored by cell imaging analysis. The cells are plated in low serum medium (Dulbecco's Modified Eagle Medium (DMEM) with Glutamax-1 and high glucose, 1% Penicillin/Streptomycin, 1% Fetal Calf Serum (FCS), 0.5 mg/ml Geneticin) overnight.
The next day, S1P1-U2OS cells are incubated in 20 μl serum free medium (DMEM with Glutamax-1 and high glucose, 0.1% of fatty-acid free Bovin Serum Albumin (BSA), 10 mM, N′-2-Hydroxyethylpiperazine-N′-2 ethanesulphonic acid (HEPES) 1M) for 2 hours at 37° C./5% CO2. The cells are then treated with 4 μl compounds/agonists (6×/3% DMSO) for a total volume of 24 μl, and plates are incubated for 1 hour at 37° C./5% CO2.
S1P1-U2OS cells are fixed with 25 μl Paraformaldehyde 8% and stained with Hoechst 33345 dye (1:1000) for 20 minutes.
They were then washed 3 times with Phosphate Buffered Saline (PBS) and plates are sealed. The internalization of the receptor S1P1-EGFP is measured on Cellomics by calculating the “spot count per object” (“object” corresponds to nuclear and “spot” corresponds to S1P1-EGFP receptor). Internalization data were observed thanks to vHCS View and analyzed using Genedata® software.
Target sequence in this assay (P21453 whole entry): as the sequence (P21453 whole entry, species assumed) above

[3] = 96 well-plate, read-out: S1P3 binding Ki (M) (96 well-plate)
[4] = 384 well-plate, read-out: S1P3 binding Ki (M) (384 well-plate)
[5] = 384 well-plate, read-out: S1P1 binding Ki (M) (384 well-plate)
[6] = 96 well-plate, read-out: S1P1 binding Ki (M) (96 well-plate)

S1P3, sequence (Q99500 whole entry, species assumed): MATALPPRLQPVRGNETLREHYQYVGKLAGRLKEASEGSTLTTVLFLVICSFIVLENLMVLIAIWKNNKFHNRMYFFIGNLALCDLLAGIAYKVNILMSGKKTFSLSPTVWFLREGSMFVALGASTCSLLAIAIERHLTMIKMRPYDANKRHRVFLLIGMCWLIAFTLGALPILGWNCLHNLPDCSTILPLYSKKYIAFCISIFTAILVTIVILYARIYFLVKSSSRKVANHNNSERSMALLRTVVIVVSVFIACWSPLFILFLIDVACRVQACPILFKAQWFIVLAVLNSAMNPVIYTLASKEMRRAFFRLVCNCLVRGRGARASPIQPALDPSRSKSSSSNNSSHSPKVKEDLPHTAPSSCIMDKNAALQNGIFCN

Structure (SMILES)	Ki (S1P3; [3])	Ki (S1P3; [4])	Ki (S1P1 [1]; [5])	EC50 (S1P1 [2])	Ki (S1P1 [1]; [6])
COCc1cc(-c2nc(-c3cccc(CN(C)CC(=O)O)c3F)no2)ccc1-c1ccccc1C(F)(F)F [Example 114, N-(2-fluoro-3-{5-[2-(methoxymethyl)-2′-(trifluoromethyl)biphenyl-4-yl]-1,2,4-oxadiazol-3-yl}benzyl)-N-methylglycine]	1.09e-06 M	9.14e-07 M	1.91e-09 M	15.6 nM	–
CCc1ccccc1-c1ccc(-c2nc(-c3ccc(CN(C)CC(=O)O)cc3)no2)cc1C(F)(F)F [Example 109, N-(4-{5-[2′-ethyl-2-(trifluoromethyl)biphenyl-4-yl]-1,2,4-oxadiazol-3-yl}benzyl)-N-methylglycine]	–	2.93e-07 M	1.5e-09 M	11.9 nM	–
COCc1cc(-c2nc(-c3cccc(CN(C)CC(=O)O)c3)no2)ccc1-c1ccccc1C(F)(F)F [Example 49, N-(3-{5-[2-(methoxymethyl)-2′-(trifluoromethyl)biphenyl-4-yl]-1,2,4-oxadiazol-3-yl}benzyl)-N-methylglycine]	1.5e-06 M	1.41e-06 M	2.35e-09 M	11.3 nM	8.7e-10 M
Cc1cc(CN(C)CC(=O)O)ccc1-c1noc(-c2ccc(-c3ccccc3C)c(C(F)(F)F)c2)n1 [Example 103, 2-(methyl(3-methyl-4-(5-(2′-methyl-2-(trifluoromethyl)biphenyl-4-yl)-1,2,4-oxadiazol-3-yl)benzyl)amino)acetic acid]	4.12e-07 M	4.68e-07 M	1.45e-09 M	17.7 nM	–
Cc1cc(-c2nc(-c3cc(F)cc(CN(C)CC(=O)O)c3)no2)ccc1-c1ccccc1C(F)(F)F [Example 104, N-(3-fluoro-5-{5-[2-methyl-2′-(trifluoromethyl)biphenyl-4-yl]-1,2,4-oxadiazol-3-yl}benzyl)-N-methylglycine]	–	2.14e-06 M	8.98e-09 M	15 nM	–
CN(CC(=O)O)Cc1cc(F)cc(-c2noc(-c3ccc(-c4ccccc4C(F)(F)F)c(Cl)c3)n2)c1 [Example 136, N-(3-{5-[2-chloro-2′-(trifluoromethyl)biphenyl-4-yl]-1,2,4-oxadiazol-3-yl}-5-fluorobenzyl)-N-methylglycine]	–	2.32e-06 M	4.27e-09 M	40.9 nM	–
CN(CC(=O)O)Cc1ccc(-c2noc(-c3ccc(-c4ccccc4C(F)(F)F)c(Cl)c3)n2)cc1F [Example 134, N-(4-{5-[2-chloro-2′-(trifluoromethyl)biphenyl-4-yl]-1,2,4-oxadiazol-3-yl}-2-fluorobenzyl)-N-methylglycine]	–	1.8e-05 M	4.07e-09 M	37.3 nM	–
Cc1ccccc1-c1ccc(-c2nc(-c3ccc(CN(CC(=O)O)C(C)C)cc3)no2)cc1C(F)(F)F [Example 113, (Isopropyl-{4-[5-(2′-methyl-2-trifluoromethyl-biphenyl-4-yl)-[1,2,4]oxadiazol-3-yl]-benzyl}-amino)-acetic acid]	2.17e-06 M	2.7e-06 M	2.9e-09 M	24.8 nM	–
Cc1ccccc1-c1ccc(-c2nc(-c3ccc(CN(C)CC(=O)O)cc3)no2)cc1C(F)(F)F [Example 81, N-methyl-N-(4-{5-[2′-methyl-2-(trifluoromethyl)biphenyl-4-yl]-1,2,4-oxadiazol-3-yl}benzyl)glycine]	8.31e-07 M	8.55e-07 M	2.74e-09 M	11.4 nM	4.12e-10 M
Cc1cc(-c2noc(-c3ccc(-c4ccccc4C)c(C(F)(F)F)c3)n2)ccc1CN(C)CC(=O)O [Example 154, 2-(methyl(2-methyl-4-(5-(2′-methyl-2-(trifluoromethyl)biphenyl-4-yl)-1,2,4-oxadiazol-3-yl)benzyl)amino)acetic acid]	–	1.07e-06 M	3.16e-09 M	17.3 nM	–
CN(CC(=O)O)Cc1ccc(-c2noc(-c3ccc(-c4ccccc4F)c(C(F)(F)F)c3)n2)cc1 [Example 89, N-(4-{5-[2′-fluoro-2-(trifluoromethyl)biphenyl-4-yl]-1,2,4-oxadiazol-3-yl}benzyl)-N-methylglycine]	6.29e-07 M	5.69e-07 M	1.19e-09 M	6.53 nM	3.49e-10 M
Cc1ccccc1-c1ccc(-c2nc(-c3ccc(CN(C)CC(=O)O)cc3Cl)no2)cc1C(F)(F)F [Example 145, 2-((4-(5-(2-(trifluoromethyl)-2′-methylbiphenyl-4-yl)-1,2,4-oxadiazol-3-yl)-3-chlorobenzyl)(methyl)amino)acetic acid]	–	2.85e-07 M	2.22e-09 M	9.44 nM	–
CCN(CCC(=O)O)Cc1cccc(-c2noc(-c3ccc(-c4ccccc4C)c(C(F)(F)F)c3)n2)c1 [Example 69, N-ethyl-N-(3-{5-[2′-methyl-2-(trifluoromethyl)biphenyl-4-yl]-1,2,4-oxadiazol-3-yl}benzyl)-beta-alanine]	4.67e-08 M	–	1.47e-09 M	8.97 nM	2.21e-10 M
Cc1ccccc1-c1ccc(-c2nc(-c3ccc(CN(C)CCC(=O)O)cc3)no2)cc1C(F)(F)F [Example 72]	1.88e-07 M	–	–	2.05 nM	2.7e-10 M
CCc1cc(-c2noc(-c3ccc(-c4ccccc4C)c(C(F)(F)F)c3)n2)ccc1CN(C)CC(=O)O [Example 155, 2-((2-ethyl-4-(5-(2′-methyl-2-(trifluoromethyl)biphenyl-4-yl)-1,2,4-oxadiazol-3-yl)benzyl)(methy)amino)acetic acid]	–	8.1e-06 M	3.72e-09 M	17.3 nM	–
Cc1ccccc1-c1ccc(-c2nc(-c3ccc(CN(C)CC(=O)O)c(F)c3F)no2)cc1C(F)(F)F [Example 150, 2-((2,3-difluoro-4-(5-(2-(trifluoromethyl)-2′-methylbiphenyl-4-yl)-1,2,4-oxadiazol-3-yl)benzyl)(methyl)amino)acetic acid]	–	2.97e-07 M	2.07e-09 M	18 nM	–
Cc1cc(-c2nc(-c3ccc(CN(C)CC(=O)O)c(F)c3)no2)ccc1-c1ccccc1C(F)(F)F [Example 123, N-(2-fluoro-4-{5-[2-methyl-2′-(trifluoromethyl)biphenyl-4-yl]-1,2,4-oxadiazol-3-yl}benzyl)-N-methylglycine]	–	6.9e-06 M	3.46e-09 M	30.4 nM	–
COCc1cc(-c2nc(-c3ccc(CN(C)CC(=O)O)c(C(F)(F)F)c3)no2)ccc1-c1ccccc1C [Example 105]	1.83e-06 M	1.88e-06 M	3.3e-09 M	74.9 nM	–
